Among the data in US20080306102A1, “NOVEL SPIROOXYINDOLE COMPOUNDS AND DRUGS CONTAINING SAME” (KOWA CO., LTD., priority 2007, published 2008) are IC50 values, retold here.

Assay [1] deals with T1, human 11β-HSD1 (Homo sapiens, UniProt P28845).
T1 construct: expressed in transfected cells; sonicated cell suspension used as lysate
Put plainly: Human 11β-HSD1 enzyme inhibitory activity (lysate of stably expressing HEK293 cells, cortisol by competitive ELISA). The assay is classed as biochemical. The protocol: (§1) Human 11β-HSD1-, human 11β-HSD2-Gene Clonings and Establishment of Stably Expressing Cells
(§2) Human 11β-HSD1- and human 11β-HSD2-gene clonings were conducted using as a template a reverse transcription product of human-liver RNA and human-kidney RNA (CELL APPLICATIONS) respectively, by means of PCR cloning with reference to nucleotide sequences of Genbank Accession No. NM_00.5525 and NM 000196. The obtained PCR products of about 0.9 kbp and 1.2 kbp were subcloned into an expression vector pcDNA3.1+/Zeo (Invitrogen).
(§3) Human 11β-HSD1- and human 11β-HSD2-expressing vectors were transfected into human kidney-derived cell line, HEK293 cells, using a transfection reagent, jet PEI (Funakoshi). Selection was conducted with 400 μg/mL of zeocine (Invitrogen) to provide stably-expressing-cell clones. The stably expressing cells were suspended in buffer solution A (20 mmol/L Tris-HCl, pH 7.4, 250 mmol/L sucrose, 1 mmol/L EGTA, 1 mmol/L EDTA, 1 mmol/L MgCl2), sonicated, and then stored at −80° C.
(§4) An enzymatic reaction was conducted using a polystyrene 96-well plate. Each well was added with 1 μL of a test agent dissolved in DMSO and then diluted (0.003 to 3 mmol/L), and further added with 10 μL of cell lysate diluted to a concentration of 0.1 mg/mL to 0.4 mg/mL. Next, 90 μL of buffer solution A containing substrate (100 nmol/L cortisone) and coenzyme (400 μmol/L NADPH) was added and the mixture was incubated at 37° C. for 1 hour. The enzymatic reaction was stopped by treating at 95° C. for 3 minutes. Cortisol that was present in the reaction solution was determined by a competitive ELISA shown below.
Anti-rabbit IgG antibody (Chemi-con) diluted to 2 μg/mL with carbonate buffer solution (pH 9.6) was added in 100 μL each to a 96-well immuno plate (Nunc) and immobilized by incubating at 4° C. overnight. 50 μL of enzymatic reaction solution was put onto the plates, and further, anti-cortisol antibody (Cosmo Bio) and HRP-labeled cortisol (Cosmo Bio), diluted with buffer solution B (25 mmol/L Tris-HCl pH 7.4, 137 mmol/L NaCl, 2.68 mmol/L KCl), were added in 50 μL respectively and incubated at 4° C. overnight. After washed three times with buffer solution B containing 0.05% Tween 20, the plates were allowed to develop color by adding 100 μL of color reagent, TMB (Moss). The color reaction was stopped by 25 μL of 1 mol/L sulfuric acid and the absorbance was determined at 450 nm with a microplate reader (Molecular Device, VersaMax).
The values of human 11β-HSD1 and human 11β-HSD2 activities were subtracted from 100, and the resultant values were regarded as the respective 11β-HSD inhibition rates of example compounds. For each example compound, the value of 50% inhibitory concentration (IC50) was calculated from 11β-HSD inhibition rates at plural concentrations, for 11β-HSD1 and 11β-HSD2 activities.
(An ELISA detects its analyte on a solid surface through an enzyme-linked reagent.)

In assay [2] the target is T2, human 11β-HSD2 (Homo sapiens, UniProt P80365).
T2 construct: expressed in transfected cells; sonicated cell suspension used as lysate
T2 sequence (P80365 1-405): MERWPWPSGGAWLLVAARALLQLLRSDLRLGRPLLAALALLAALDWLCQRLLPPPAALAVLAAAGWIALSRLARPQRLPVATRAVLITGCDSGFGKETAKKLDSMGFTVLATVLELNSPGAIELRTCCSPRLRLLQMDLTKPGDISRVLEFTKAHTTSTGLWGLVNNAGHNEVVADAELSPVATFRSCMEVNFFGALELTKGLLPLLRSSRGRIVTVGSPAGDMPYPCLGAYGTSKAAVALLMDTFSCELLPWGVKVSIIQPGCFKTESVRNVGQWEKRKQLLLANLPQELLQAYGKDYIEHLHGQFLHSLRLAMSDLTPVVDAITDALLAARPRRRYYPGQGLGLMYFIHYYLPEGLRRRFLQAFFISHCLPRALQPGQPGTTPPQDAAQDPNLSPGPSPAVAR
Put plainly: Human 11β-HSD2 enzyme inhibitory activity (lysate of stably expressing HEK293 cells, cortisol by competitive ELISA). The assay is classed as biochemical. The following applies: human 11β-HSD2, HEK293 cell lysate, 37° C. 1 hour. The method, then: as §1, §2, §3, §4
Anti-rabbit IgG antibody (Chemi-con) diluted to 2 μg/mL with carbonate buffer solution (pH 9.6) was added in 100 μL each to a 96-well immuno plate (Nunc) and immobilized by incubating at 4° C. overnight. […] The color reaction was stopped by 25 μL of 1 mol/L sulfuric acid and the absorbance was determined at 450 nm with a microplate reader (Molecular Device, VersaMax). […]

[3] abbreviates: human 11β-HSD1, HEK293 cell lysate, 100 nmol/L cortisone, 400 μmol/L NADPH, 37° C. 1 hour, read-out: IC50(μM) HSD1.

Like-named read-outs stand apart in the source and are kept apart here.

T1 sequence (P28845 whole entry): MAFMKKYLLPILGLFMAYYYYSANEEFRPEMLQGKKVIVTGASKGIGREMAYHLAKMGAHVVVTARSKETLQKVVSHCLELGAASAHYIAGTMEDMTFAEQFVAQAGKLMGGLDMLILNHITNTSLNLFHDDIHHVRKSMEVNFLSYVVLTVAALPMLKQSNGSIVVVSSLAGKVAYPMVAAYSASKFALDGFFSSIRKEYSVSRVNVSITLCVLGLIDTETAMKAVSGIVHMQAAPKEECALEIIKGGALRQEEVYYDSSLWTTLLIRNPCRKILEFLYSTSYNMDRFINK

Turning to `O=C(COc1ccccc1C(F)(F)F)N1CCC2(CC1)C(=O)Nc1ccccc12` [Example 1, 1′-{2-(2-trifluoromethylphenoxy)acetyl}spiro(indole-3,4′-piperidine)-2(1H)-one], the IC50 in assay [1] (setting [3]) was determined as 0.033 µM.

For the molecule `Cc1ccccc1OCC(=O)N1CCC2(CC1)C(=O)Nc1ccccc12` [Example 2, 1′-{2-(2-methylphenoxy)acetyl}spiro(indole-3,4′-piperidine)-2(1H)-one], the IC50 in assay [1] (setting [3]) was determined as 0.82 µM.

For the molecule `O=C(COc1ccccc1I)N1CCC2(CC1)C(=O)Nc1ccccc12` [Example 10, 1′-{2-(2-iodophenoxy)acetyl}spiro(indole-3,4′-piperdine)-2 (1H)-one], the IC50 is greater than 30 µM in assay [2] and 0.087 µM in assay [1] (setting [3]).

As for `O=C(COc1ccccc1[N+](=O)[O-])N1CCC2(CC1)C(=O)Nc1ccccc12` [Example 12, 1′-{2-(2-nitrophenoxy)acetyl}spiro(indole-3,4′-piperidine)-2(1H)-one], the IC50 in assay [1] (setting [3]) is 1 µM.

As to `O=C(COc1cccc(Cl)c1Cl)N1CCC2(CC1)C(=O)Nc1ccccc12` [Example 40, 1′-{2-(2,3-dichlorophenoxy)acetyl}spiro(indole-3,4′-piperidine)-2(1H)-one], in assay [1] (setting [3]), the IC50 is 0.96 µM.

Take `O=C(COc1ccccc1Br)N1CCC2(CC1)C(=O)Nc1ccccc12` [Example 49]: the IC50 in assay [2] is greater than 30 µM; in assay [1] (setting [3]), 0.41 µM.

On to `CC(C)(C)c1ccccc1OCC(=O)N1CCC2(CC1)C(=O)Nc1ccccc12` [Example 52, 1′-{2-(2-t-butylphenoxy)acetyl}spiro(indole-3,4′-piperidine)-2(1H)-one], for which, in assay [1] (setting [3]), the IC50 was determined as 0.73 µM.

As for `O=C(CSc1ccccc1C(F)(F)F)N1CCC2(CC1)C(=O)Nc1ccccc12` [Example 70, 1′-{2-(2-trifluoromethylphenylthio)acetyl}spiro(indole-3,4′-piperidine)-2(1H)-one], in assay [1] (setting [3]), the IC50 amounted to 0.16 µM.

Turning to `CN1C(=O)C2(CCN(C(=O)COc3ccccc3C(F)(F)F)CC2)c2ccccc21` [Example 76, 1-methyl-1′-{2-(2-trifluoromethylphenoxy)acetyl}spiro(indole-3,4′-piperidine)-2-one], the IC50 in assay [2] was greater than 30 µM; in assay [1] (setting [3]), 0.068 µM.

Turning to `CCN1C(=O)C2(CCN(C(=O)COc3ccccc3C(F)(F)F)CC2)c2ccccc21` [Example 80, 1-ethyl-1′-{2-(2-trifluoromethylphenoxy)acetyl}spiro(indole-3,4′-piperidine)-2-one], the IC50 in assay [1] (setting [3]) was 0.67 µM.

Consider `CCCN1C(=O)C2(CCN(C(=O)COc3ccccc3C(F)(F)F)CC2)c2ccccc21` [Example 81, 1-propyl-1′-{2-(2-trifluoromethylphenoxy)acetyl}spiro(indole-3,4′-piperidine)-2-one], for which the IC50 in assay [1] (setting [3]) was found to be 0.43 µM.

In the case of `O=C(COc1ccccc1C(F)(F)F)N1CCC2(CC1)C(=O)N(C1CC1)c1ccccc12` [Example 84, 1-cyclopropyl-1′-{2-(2-trifluoromethylphenoxy)acetyl}spiro(indole-3,4′-piperidine)-2-one], in assay [1] (setting [3]), the IC50 stood at 0.72 µM.

Regarding `O=C(N1CCC2(CC1)C(=O)Nc1ccccc12)C1(c2ccc(Cl)cc2)CC1` [compound A, 1′-{[1-(4-Chlorophenyl)cyclopropyl]carbonyl}spiro[indole-3, 4′-piperidin]-2(1H)-one, reference compound], in assay [1] (compound A actually synthesized and measured by the applicant, read-out: 50% inhibitory concentration (IC50) for 11β-HSD1 activity), the IC50 was 3 µM.
